pIC50: −log10 of the molar value. Structures can show the parent of a compound that is named as a salt. Where two headings read alike, the source gives them in different places.
Columns and labels:
[1] = target: T1, IKKε (Homo sapiens, UniProt Q14164); assay: IKKe Biochemical Assay; conditions: read-out: IKKε IC50
T1 sequence (Q14164 1-716): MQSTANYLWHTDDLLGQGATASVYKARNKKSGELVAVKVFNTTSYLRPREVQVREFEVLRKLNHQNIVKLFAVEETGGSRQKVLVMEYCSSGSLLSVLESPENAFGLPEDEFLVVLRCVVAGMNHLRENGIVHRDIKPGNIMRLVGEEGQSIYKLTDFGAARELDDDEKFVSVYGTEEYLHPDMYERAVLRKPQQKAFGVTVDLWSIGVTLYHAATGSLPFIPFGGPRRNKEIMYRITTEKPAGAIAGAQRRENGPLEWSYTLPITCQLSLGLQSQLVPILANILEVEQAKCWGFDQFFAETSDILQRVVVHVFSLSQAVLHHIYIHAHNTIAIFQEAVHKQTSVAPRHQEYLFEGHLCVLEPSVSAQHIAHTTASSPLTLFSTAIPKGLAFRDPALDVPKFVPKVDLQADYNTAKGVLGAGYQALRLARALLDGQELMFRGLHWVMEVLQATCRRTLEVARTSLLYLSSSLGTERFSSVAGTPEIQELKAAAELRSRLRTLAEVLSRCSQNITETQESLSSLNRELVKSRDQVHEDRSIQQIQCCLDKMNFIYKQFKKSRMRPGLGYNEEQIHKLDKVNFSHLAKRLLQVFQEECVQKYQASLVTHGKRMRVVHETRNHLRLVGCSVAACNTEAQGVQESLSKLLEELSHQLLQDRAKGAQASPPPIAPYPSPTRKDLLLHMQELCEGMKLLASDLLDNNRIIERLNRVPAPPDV
Outline: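 Activity was measured as mobility-shift separation of phosphorylated from unphosphorylated substrate on a LabChip EZ Reader. Compound was titrated from 30 uM final in 10 points, 1:4 steps, with 1% DMSO, and enzyme plus substrate reacted 90 min at 25° C before stop buffer. Control wells held 10 uM staurosporine.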

[2] = system: phosphorylation of the IRF-3 protein in MDA-MB-468 cells; assay: pIRF3 immunocytochemistry cell based assay; conditions: Homo sapiens
Outline: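 After 2 h stimulation with Poly(I:C) (10 ug/ml), following 1 h compound pre-treatment (10-point, 3-fold dilution, top 10 uM), MDA-MB-468 cells were fixed and stained with anti-pIRF3 antibody. pIRF3 fluorescence was normalized to PI staining or cell count on an Acumen cytometer. IC50 curves were derived from this.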

[3] = target: T2, TBK1 (Homo sapiens, UniProt Q9UHD2); assay: TBK Biochemical Assay; conditions: read-out: TBK1 IC50
T2 sequence (Q9UHD2 1-729): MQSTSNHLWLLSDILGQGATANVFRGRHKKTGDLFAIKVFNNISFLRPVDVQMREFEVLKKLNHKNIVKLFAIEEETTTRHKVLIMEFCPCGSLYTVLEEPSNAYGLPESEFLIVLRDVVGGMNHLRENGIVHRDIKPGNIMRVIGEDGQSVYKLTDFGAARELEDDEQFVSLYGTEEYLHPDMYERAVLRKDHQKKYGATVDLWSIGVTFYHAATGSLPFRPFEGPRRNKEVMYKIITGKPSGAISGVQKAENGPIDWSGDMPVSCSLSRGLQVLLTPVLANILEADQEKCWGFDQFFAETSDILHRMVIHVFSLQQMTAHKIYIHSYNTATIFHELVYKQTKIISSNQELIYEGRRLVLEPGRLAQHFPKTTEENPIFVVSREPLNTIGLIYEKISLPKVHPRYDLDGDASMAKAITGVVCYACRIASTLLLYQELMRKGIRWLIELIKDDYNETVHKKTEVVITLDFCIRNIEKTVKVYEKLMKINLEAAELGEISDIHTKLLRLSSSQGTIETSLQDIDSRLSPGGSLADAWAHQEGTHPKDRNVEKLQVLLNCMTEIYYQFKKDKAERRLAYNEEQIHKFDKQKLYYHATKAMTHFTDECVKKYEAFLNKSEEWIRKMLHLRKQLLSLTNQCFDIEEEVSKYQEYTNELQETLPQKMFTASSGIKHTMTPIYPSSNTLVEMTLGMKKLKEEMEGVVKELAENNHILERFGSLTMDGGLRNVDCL
Outline: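 Caliper LabChip mobility-shift readout of substrate and product after 90 min of TBK1 reaction at 25° C and stop-buffer addition. Compounds tested in 1:4 serial dilution over 10 points from 30 uM final at 1% DMSO; staurosporine 10 uM final defines full inhibition.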

[4] = MDA-MB-468 cells, Poly(I:C) stimulation, read-out: pIRF3 IC50
[5] = MDA-MB-468, read-out: pIRF3 IC50

| SMILES | pIC50 [1] | pIC50 [2, 4] | pIC50 [3] | pIC50 [2, 5] |
| --- | --- | --- | --- | --- |
| COc1cc(C(=O)N2CCCCN2)cnc1-c1cc2nccc(-c3ccc(OC4CCOCC4)c(C#N)c3)c2o1 [Compound 407, 5-(2-[5-[(1,2-diazinan-1-yl)carbonyl]-3-methoxypyridin-2-yl]furo[3,2-b]pyridin-7-yl)-2-(oxan-4-yloxy)benzonitrile hydrochloride] | > 7.00 | 6.00 to 7.00 | > 7.00 |  |
| COc1cc(C(=O)N2CCCCN2C)cnc1-c1cc2nccc(-c3ccc(OC4CCOCC4)c(C#N)c3)c2o1 [Compound 408, 5-(2-[3-methoxy-5-[(2-methyl-1,2-diazinan-1-yl)carbonyl]pyridin-2-yl]furo[3,2-b]pyridin-7-yl)-2-(oxan-4-yloxy)benzonitrile] | > 7.00 |  | > 7.00 | 6.00 to 7.00 |
| COc1cc(C(=O)N2CCCCC2)cnc1-c1cc2nccc(-c3ccc(N4CC[C@@H](F)C4)c(C#N)c3)c2o1 [Compound 410, 2-[(3R)-3-fluoropyrrolidin-1-yl]-5-(2-[3-methoxy-5-[(piperidin-1-yl)carbonyl]pyridin-2-yl]furo[3,2-b]pyridin-7-yl)benzonitrile] | > 7.00 | 6.00 to 7.00 | > 7.00 |  |
| COc1cc(C(=O)N2CC3CCC(C2)O3)cnc1-c1cc2nccc(-c3ccc(OC4CCOCC4)c(C#N)c3)c2o1 [Compound 411, 5-[2-[3-methoxy-5-([8-oxa-3-azabicyclo[3.2.1]octan-3-yl]carbonyl)pyridin-2-yl]furo[3,2-b]pyridin-7-yl]-2-(oxan-4-yloxy)benzonitrile hydrochloride] | > 7.00 | 6.00 to 7.00 | > 7.00 |  |
| COc1cc(C(=O)N2C3COCC2CC(O)C3)cnc1-c1cc2nccc(-c3ccc(OC4CCOCC4)c(C#N)c3)c2o1 (stereo not drawn) [Compound 412, 5-[2-[5-([7-hydroxy-3-oxa-9-azabicyclo[3.3.1]nonan-9-yl]carbonyl)-3-methoxypyridin-2-yl]furo[3,2-b]pyridin-7-yl]-2-(oxan-4-yloxy)benzonitrile] | > 7.00 | > 7.00 | > 7.00 |  |
| COc1cc(C(=O)N2CC3CCC2CO3)ncc1-c1cc2nccc(-c3ccc(OC4CCOCC4)c(C#N)c3)c2o1 (stereo not drawn) [Compound 413, 5-[2-[4-methoxy-6-([2-oxa-5-azabicyclo[2.2.2]octan-5-yl]carbonyl)pyridin-3-yl]furo[3,2-b]pyridin-7-yl]-2-(oxan-4-yloxy)benzonitrile hydrochloride] | > 7.00 | 6.00 to 7.00 | > 7.00 |  |
| COc1cc(C(=O)N2CC3CCC2CO3)cnc1-c1cc2nccc(-c3ccc(OC4CCOCC4)c(C#N)c3)c2o1 (stereo not drawn) [Compound 414, hydrochloride] | > 7.00 | > 7.00 | > 7.00 |  |
| COc1cc(C(=O)N2CCC2)cnc1-c1cc2nccc(-c3ccc(OC4CCOCC4)c(C#N)c3)c2o1 [Compound 415, 5-(2-[5-[(azetidin-1-yl)carbonyl]-3-methoxypyridin-2-yl]furo[3,2-b]pyridin-7-yl)-2-(oxan-4-yloxy)benzonitrile] | > 7.00 |  | > 7.00 | 6.00 to 7.00 |
| COc1cc(C(=O)N2CCCC2)cnc1-c1cc2nccc(-c3ccc(OC4CCOCC4)c(C#N)c3)c2o1 [Compound 416, 5-(2-[3-methoxy-5-[(pyrrolidin-1-yl)carbonyl]pyridin-2-yl]furo[3,2-b]pyridin-7-yl)-2-(oxan-4-yloxy)benzonitrile hydrochloride] | > 7.00 | 6.00 to 7.00 | > 7.00 |  |
| COc1cc(C(=O)N(C)C)ncc1-c1cc2nccc(-c3ccc(OC4CCNCC4(F)F)c(C#N)c3)c2o1 (stereo not drawn) [Compound 418, 5-(7-[3-cyano-4-[(3,3-difluoropiperidin-4-yl)oxy]phenyl]furo[3,2-b]pyridin-2-yl)-4-methoxy-N,N-dimethylpyridine-2-carboxamide hydrochloride] | > 7.00 | 6.00 to 7.00 | > 7.00 |  |
| COc1cc(C(=O)N(C)C)ncc1-c1cc2nccc(-c3ccc(OC4CCN(C)CC4(F)F)c(C#N)c3)c2o1 (stereo not drawn) [Compound 419, 5-(7-[3-cyano-4-[(3,3-difluoro-1-methylpiperidin-4-yl)oxy]phenyl]furo[3,2-b]pyridin-2-yl)-4-methoxy-N,N-dimethylpyridine-2-carboxamide] | > 7.00 | 6.00 to 7.00 | > 7.00 |  |
| COc1cc(C(=O)N2CC3COCC3C2)cnc1-c1cc2nccc(-c3ccc(NC4CCOCC4)c(C#N)c3)c2o1 (stereo not drawn) [Compound 420, 5-[2-[5-([hexahydro-1H-furo[3,4-c]pyrrol-5-yl]carbonyl)-3-methoxypyridin-2-yl]furo[3,2-b]pyridin-7-yl]-2-[(oxan-4-yl)amino]benzonitrile] | > 7.00 | 6.00 to 7.00 | > 7.00 |  |
| COc1cc(C(=O)NC(C)(C)CCN(C)C)cnc1-c1cc2nccc(-c3ccc(NC4CCOCC4)c(C#N)c3)c2o1 [Compound 422, 6-(7-[3-cyano-4-[(oxan-4-yl)amino]phenyl]furo[3,2-b]pyridin-2-yl)-N-[4-(dimethylamino)-2-methylbutan-2-yl]-5-methoxypyridine-3-carboxamide] | > 7.00 | > 7.00 | > 7.00 |  |
| COc1cc(C(=O)NC(C)(C)CCN(C)C)ncc1-c1cc2nccc(-c3ccc(NC4CCOCC4)c(C#N)c3)c2o1 [Compound 423, 5-(7-[3-cyano-4-[(oxan-4-yl)amino]phenyl]furo[3,2-b]pyridin-2-yl)-N-[4-(dimethylamino)-2-methylbutan-2-yl]-4-methoxypyridine-2-carboxamide] | > 7.00 | 6.00 to 7.00 | > 7.00 |  |
| COc1cc(C(=O)N(C)C)ncc1-c1cc2nccc(-c3ccc(OC4CN(C)C4)c(C#N)c3)c2o1 [Compound 424, 5-(7-[3-cyano-4-[(1-methylazetidin-3-yl)oxy]phenyl]furo[3,2-b]pyridin-2-yl)-4-methoxy-N,N-dimethylpyridine-2-carboxamide] | 6.00 to 7.00 | 6.00 to 7.00 | 6.00 to 7.00 |  |
| COc1cc(C(=O)N(C)C)cnc1-c1cc2nccc(-c3ccc(OC4CN(C)C4)c(C#N)c3)c2o1 [Compound 425, 6-(7-[3-cyano-4-[(1-methylazetidin-3-yl)oxy]phenyl]furo[3,2-b]pyridin-2-yl)-5-methoxy-N,N-dimethylpyridine-3-carboxamide] | 6.00 to 7.00 | 6.00 to 7.00 | 6.00 to 7.00 |  |
| COc1cc(C(=O)N(C)C)cnc1-c1cc2nccc(-c3ccc(OC4CCN(C)C4)c(C#N)c3)c2o1 (stereo not drawn) [Compound 426, 6-(7-[3-cyano-4-[(1-methylpyrrolidin-3-yl)oxy]phenyl]furo[3,2-b]pyridin-2-yl)-5-methoxy-N,N-dimethylpyridine-3-carboxamide] | 6.00 to 7.00 | 6.00 to 7.00 | 6.00 to 7.00 |  |
| COc1cc(C(=O)N(C)C)cnc1-c1cc2nccc(-c3ccc(OC4CCN(C(C)C)C4)c(C#N)c3)c2o1 (stereo not drawn) [Compound 427, 6-(7-(3-cyano-4-(1-isopropylpyrrolidin-3-yloxy)phenyl)furo[3,2-b]pyridin-2-yl)-5-methoxy-N,N-dimethylnicotinamide] | 6.00 to 7.00 | 6.00 to 7.00 | 6.00 to 7.00 |  |
